Test results: patent publication US12534444B2, “Treatment of cancer/inhibition of metastasis” (Celex Oncology Innovations Limited, priority 2010, dated 2026)

What was measured:
MDA-MB-231 cells [1] = assay: Lateral motility assay (wound-heal / scratch); type: cell-based, human
Protocol: This assay was used to represent the “free” motility of cancer cells during local spreading. FIG. 5(a) is a plan view from above of a cell culture dish 501 having a semi-confluent layer of cells 502 on its surface, the cells being in an aqueous medium 503.
In order to determine lateral motility, a “wound-heal (“scratch”)” test was carried out, in which a scratch 504 of ˜0.5 mm was made through the layer of cells, as shown in FIG. 5(b) which is a side sectional view of the cell culture dish.
During the period of 24 hours following the formation of the scratch, the cells moved into the gap.
FIGS. 5(c) and 5(d) are schematic plan views of the cell culture dish 501 at time t=zero when the width of the scratch 504 is w0 and time t=24 hours when the width of the scratch 504 is w24, respectively.
(§1) With the exception of single cell adhesion tests, which are discussed in the following paragraph, experiments were carried out under either; • (i) normal normoxic conditions ([…], 5% carbon dioxide), or • (ii) following 24 hours hypoxic pre-treatment (2% O2, 5% CO2, 93% N2) continued during the assays.

MDA-MB-231 cells [2] = assay: Invasion assay (Matrigel Transwell); type: cell-based, human; conditions: for INVASIVENESS (pretreatment): 72 hours pretreatment
Source text: This assay is an extension of the transverse migration assay described above. To “invade”, the cells need both (i) to move as in the transverse migration assay and (ii) secrete a proteolytic enzyme to digest their surroundings. The ability of cells to invade neighbouring tissues by enzyme secretion was therefore assessed by using a layer of Matrigel™ (BD Biosciences) spread across the porous membrane of a Transwell® insert.
FIG. 7 is a schematic side sectional view of an invasion chamber 701 having a Transwell® insert 702 separating the chamber into upper 703 and lower 704 sections. The insert 702 has a migration filter membrane 705 in its base with 8 μm pores 706 extending therethrough. A layer 707 of Matrigel™ is shown coating the filter membrane 705.
Cells 708 were plated at a density of 2×10^4/ml onto the Matrigel™ layer 707 in 24-well plates (Becton-Dickinson) according to the manufacturers' instructions. 50 μl Matrigel™ was seeded at a 1:7 dilution (10 mg/ml stock) onto the inserts and left overnight. Prior to seeding with the cells the Matrigel™ was rehydrated using medium with no additions. This medium was removed prior to seeding the cells.
Cells were plated in a 1-5% FBS chemotactic gradient overnight (12 hours). The nutrient concentration in the medium 709 in the upper section 703 of the chamber was less than the concentration of nutrient in the medium 710 in the lower section 704 to induced movement of the cells through the Matrigel™ layer 707 and through the pores 706 to the underside of the filter membrane 705. At the end of each assay, non-invaded/non-migrated cells were removed from the upper surface of the insert 702 with two different swabs.
The number of cells invading to the underside of the insert 702 was determined using crystal violet staining. Invaded cells were fixed for 15 minutes with ice-cold methanol. Then 0.5% crystal violet (in 25% methanol) was added for 15 minutes. The inserts were swabbed again and then washed in water and allowed to dry. Cells were then counted using twelve separate fields of view per insert (×200 magnification). If the difference in the average number of cells invading the two control inserts was more than 40%, the experiment was rejected.
as §1

Mat-LyLu cells = assay: Cell growth (proliferation) assay (MTT); type: cell-based, rat
Protocol: Cells were plated at 2×10^4 cells/ml in 24-well plates (Becton-Dickinson) and allowed to settle overnight. The cells were then treated for the required time of incubation (24 hours+), with medium changes every 24 hours. At the end of the treatment, the medium was removed, and this was followed by the colorimetric 3-[4,5-dimethylthiazol-2-yl]-2,5-diphenyltetrazolium bromide (MTT) assay (Grimes et al., 1995). Briefly, 0.1 ml MTT (5 mg/ml made up in the growth medium) and 0.4 ml growth medium was added in each well and the plate was incubated for 3-4 hours at 37° C. The medium was then removed from the chambers and replaced with 0.5 ml dimethyl sulfoxide (DMSO) and 0.063 ml glycine buffer (0.1 M glycine and 0.1 M NaCl; pH 10.5). Absorbance at 570 nm was determined 15 minutes after the addition of the glycine buffer. Results were calculated as means of nine repeats of each of the treatment vs. control spectrophotometer readings from individual invasion wells.
as §1

[3] = Hypoxia, 5 μM, listed as RILUZOLE

## Nc1nc2ccc(OC(F)(F)F)cc2s1 [riluzole]
MDA-MB-231 cells [1]; 1 μM, 10 μM and 100 μM, normoxia and hypoxia
  lateral motility with increasing concentration: reduced the lateral motility of the cells; the effect was greater under hypoxia
MDA-MB-231 cells [1]; Hypoxia, 1 μM
  LATERAL MOTILITY: decreased
MDA-MB-231 cells [1]; Hypoxia, 10 μM
  LATERAL MOTILITY: decreased
MDA-MB-231 cells [1]; Hypoxia, 100 μM
  LATERAL MOTILITY: decreased
MDA-MB-231 cells [1]; Normoxia, 1 μM
  LATERAL MOTILITY: no effect
MDA-MB-231 cells [1]; Normoxia, 10 μM
  LATERAL MOTILITY: decreased
MDA-MB-231 cells [1]; Normoxia, 100 μM
  LATERAL MOTILITY: decreased
MDA-MB-231 cells [2]; Hypoxia, 1 μM
  INVASIVENESS (no pretreatment): decreased
MDA-MB-231 cells [2]; Hypoxia, 5 μM
  INVASIVENESS (pretreatment): significantly inhibited invasiveness
MDA-MB-231 cells [2]; [3]
  INVASIVENESS (pretreatment): decreased
  INVASIVENESS (no pretreatment): decreased
MDA-MB-231 cells [2]; Hypoxia, 5 μM, listed as Riluzole
  INVASIVENESS (no pretreatment): significantly inhibited invasiveness
MDA-MB-231 cells [2]; Normoxia, 1 μM
  INVASIVENESS (no pretreatment): decreased
Mat-LyLu cells; 3 μM, 5 μM, 10 μM and 30 μM, 24 hours, normoxia and hypoxia (2% O2)
  cell proliferation with increasing concentration: decreased cell proliferation dose dependently under both normoxia and hypoxia; the effect was greater under hypoxia
Mat-LyLu cells; Hypoxia, 3 μM
  PROLIFERATION (24 hours): no effect
Mat-LyLu cells; Hypoxia, 5 μM
  PROLIFERATION (24 hours): tail off
Mat-LyLu cells; Hypoxia, 10 μM
  PROLIFERATION (24 hours): tail off
Mat-LyLu cells; Hypoxia, 30 μM
  PROLIFERATION (24 hours): tail off
Mat-LyLu cells; Normoxia, 3 μM
  PROLIFERATION (24 hours): no effect
Mat-LyLu cells; Normoxia, 5 μM
  PROLIFERATION (24 hours): tail off
Mat-LyLu cells; Normoxia, 10 μM
  PROLIFERATION (24 hours): tail off
Mat-LyLu cells; Normoxia, 30 μM
  PROLIFERATION (24 hours): tail off
